Assay results: patent publication US4900730A, “Preparation which promotes the absorption of peptides” (priority 1981, dated 1990)
Each block holds one compound with its values, some of them ahead of it.

Assay: Rectal circulation: Cephalothin disappeared by absorption (Examples 10-14, 16-18)
Method: The experiments were conducted similarly as in Example 1. […] Each sample was diluted and the quantity of Cephalothin disappeared was determined by UV-spectrophotometer of high-speed liquid chromatography.

[1] = Table 11, promoter 0.5% W/V, Example 10 repeated, four-fold tonic
[2] = Table 11, promoter 0.5% W/V, Example 10 repeated, isotonic
[3] = Table 4, promoter 0.1% W/V, 0.1% W/V Cephalothin.Na, isotonic, after one hour
[4] = Table 4, promoter 0.1% W/V, 0.1% W/V Cephalothin.Na, four-fold tonic, after one hour
[5] = Table 4, promoter 0.1% W/V, 0.1% W/V Cephalothin.Na, two-fold tonic, after one hour
[6] = Table 5, promoter 0.1% W/V, 0.1% W/V Cephalothin.Na, four-fold tonic, one hour

SMILES: O=C(O)[C@@H]1C[C@@H](O)CN1 (racemic) [DL-hydroxyproline]
Cephalothin disappeared by absorption, Osmotic pressure X 4 [1]: 12.9 percents | Cephalothin disappeared by absorption, Osmotic pressure X 1 [2]: 5.5 percents

SMILES: NC(C(=O)O)c1ccccc1 (racemic) [DL-phenylglycine]
Cephalothin disappeared by absorption, Osmotic pressure X 4 (rat, in vivo): 29.3 percents

SMILES: O=C(O)c1c(O)cccc1O [2,6-dihydroxybenzoic acid]
Cephalothin.Na disappeared by absorption, Osmotic pressure X 1 (rat, in vivo): 9.5 percents | Cephalothin.Na disappeared by absorption, Osmotic pressure X 2 (rat, in vivo): 15.3 percents | Cephalothin.Na disappeared by absorption, Osmotic pressure X 4 (rat, in vivo): 22.9 percents

SMILES: CC(=O)CC(=O)Cc1ccccc1 [3-Phenylacetyl acetone, 3-phenylacetyl acetone]
Cephalothin disappeared by absorption, Osmotic pressure X 4 (Table 10, diketo-compounds, Example 10 repeated, four-fold tonic): 22.2 percents | Cephalothin disappeared by absorption, Osmotic pressure X 1 (Table 10, diketo-compounds, Example 10 repeated, isotonic): 9.1 percents | Cephalothin disappeared by absorption, Osmotic pressure X 2 (Table 10, diketo-compounds, Example 10 repeated, two-fold tonic): 16.3 percents

SMILES: O=C(O)CN(CC(=O)O)C1CCCCC1N(CC(=O)O)CC(=O)O (stereo not drawn) [CyDTA, trans-cyclohexanediaminetetraacetic acid]
Cephalothin disappeared by absorption, Osmotic pressure (%) X 1 (rat, in vivo): 8.1% | Cephalothin disappeared by absorption, Osmotic pressure (%) X 2 (rat, in vivo): 15.0% | Cephalothin disappeared by absorption, Osmotic pressure (%) X 4 (rat, in vivo): 32.3%

SMILES: O=S(=O)(O)c1cc(O)c(O)c(S(=O)(=O)O)c1 [DHBDS, 1,2-dihydroxybenzene-3,5-disulfonic acid]
Cephalothin disappeared by absorption, Osmotic pressure X 1 (rat, in vivo): 9.8 percents | Cephalothin disappeared by absorption, Osmotic pressure X 4 (rat, in vivo): 22.0 percents

SMILES: NCC(=O)O [DL-glycine]
Cephalothin disappeared by absorption, Osmotic pressure X 4 [1]: 14.0 percents | Cephalothin disappeared by absorption, Osmotic pressure X 1 [2]: 6.9 percents | Cephalothin disappeared by absorption, Osmotic pressure X 2 (Table 11, promoter 0.5% W/V, Example 10 repeated, two-fold tonic): 9.4 percents

SMILES: O=C(O)CN(CC(=O)O)CC(O)CN(CC(=O)O)CC(=O)O [DTPA-OH, diaminopropanoltetraacetic acid]
Cephalothin disappeared by absorption, Osmotic pressure (%) X 1 (rat, in vivo): 7.5% | Cephalothin disappeared by absorption, Osmotic pressure (%) X 2 (rat, in vivo): 13.7% | Cephalothin disappeared by absorption, Osmotic pressure (%) X 4 (rat, in vivo): 21.6%

SMILES: O=C(O)CN(CCN(CC(=O)O)CC(=O)O)CC(=O)O [EDTA.2Na, ethylenediaminetetraacetic acid]
Cephalothin disappeared by absorption, Osmotic pressure (%) X 1 [3]: 9.4%

SMILES: O=P(O)(O)CN(CCN(CP(=O)(O)O)CP(=O)(O)O)CP(=O)(O)O [EDTPO, ethylenediaminetetrakis(methylenephosphonicacid)]
Cephalothin disappeared by absorption, Osmotic pressure X 1 (rat, in vivo): 7.6 percents | Cephalothin disappeared by absorption, Osmotic pressure X 4 (rat, in vivo): 20.0 percents

SMILES: O=P(O)(O)OC[C@H]1O[C@](O)(COP(=O)(O)O)[C@@H](O)[C@@H]1O [Fructose-1,6-diphosphoric acid]
Cephalothin disappeared by absorption, Osmotic pressure X 1 (rat, in vivo): 4.1 percents | Cephalothin disappeared by absorption, Osmotic pressure X 2 (rat, in vivo): 7.5 percents | Cephalothin disappeared by absorption, Osmotic pressure X 4 (rat, in vivo): 13.3 percents

SMILES: O=C(O)CCCC(=O)O [Glutaric acid, glutaric acid]
Cephalothin disappeared by absorption, Osmotic pressure (%) X 4 [4]: 15.2% | Cephalothin disappeared by absorption, Osmotic pressure (%) X 1 [3]: 5.7% | Cephalothin disappeared by absorption, Osmotic pressure (%) X 2 [5]: 9.3%

SMILES: CN(C)[C@@H](Cc1ccccc1)C(=O)O [N--dimethylphenylalanine, N-dimethylphenylalanine]
Cephalothin disappeared by absorption, Osmotic pressure X 1 (rat, in vivo): 10.9 percents | Cephalothin disappeared by absorption, Osmotic pressure X 4 (rat, in vivo): 25.5 percents

SMILES: O=C(O)CNc1ccccc1 [N--phenylglycine, N-phenylglycine]
Cephalothin disappeared by absorption, Osmotic pressure X 1 (rat, in vivo): 12.0 percents | Cephalothin disappeared by absorption, Osmotic pressure X 2 (rat, in vivo): 22.3 percents | Cephalothin disappeared by absorption, Osmotic pressure X 4 (rat, in vivo): 30.8 percents

SMILES: O=CC(=O)[O-].[Na+] [Sodium glyoxalate, sodium glyoxalate]
Cephalothin disappeared by absorption, Osmotic pressure (%) X 4 [6]: 13.1% | Cephalothin disappeared by absorption, Osmotic pressure (%) X 1 (Table 5, promoter 0.1% W/V, 0.1% W/V Cephalothin.Na, isotonic, one hour): 4.9%

SMILES: O=C([O-])c1ccccc1C(=O)[O-].[Na+].[Na+] [Sodium phthalate, sodium phthalate]
Cephalothin.Na disappeared by absorption, Osmotic pressure X 1 (rat, in vivo): 7.1 percents | Cephalothin.Na disappeared by absorption, Osmotic pressure X 4 (rat, in vivo): 18.9 percents

SMILES: O=C(O)/C=C(\CC(=O)O)C(=O)O [Trans-aconitic acid, trans-aconitic acid]
Cephalothin disappeared by absorption, Osmotic pressure (%) X 4 [4]: 27.8% | Cephalothin disappeared by absorption, Osmotic pressure (%) X 1 [3]: 10.5% | Cephalothin disappeared by absorption, Osmotic pressure (%) X 2 [5]: 18.6%

Now from value to compound:

Cephalothin disappeared by absorption, Osmotic pressure X 1 (rat, in vivo): 5.3 percents | Cephalothin disappeared by absorption, Osmotic pressure X 2 (rat, in vivo): 9.0 percents | Cephalothin disappeared by absorption, Osmotic pressure X 4 (rat, in vivo): 14.6 percents
SMILES: NC(CS(=O)(=O)O)C(=O)O (racemic) [DL-cysteic acid]

Cephalothin disappeared by absorption, Osmotic pressure X 1 (rat, in vivo): 6.6 percents | Cephalothin disappeared by absorption, Osmotic pressure X 4 (rat, in vivo): 15.6 percents
SMILES: NC(Cc1ccccc1)C(=O)O (racemic) [DL-phenylalanine]

Cephalothin disappeared by absorption, Osmotic pressure X 1 (rat, in vivo): 11.0 percents | Cephalothin disappeared by absorption, Osmotic pressure X 4 (rat, in vivo): 30.4 percents
SMILES: CCC(NC(=O)CN)C(=O)O (racemic) [Glycyl-DL-aminobutyric acid, glycyl-DL-aminobutyric acid]

Cephalothin disappeared by absorption, Osmotic pressure X 1 (rat, in vivo): 8.6 percents | Cephalothin disappeared by absorption, Osmotic pressure X 4 (rat, in vivo): 19.0 percents
SMILES: NCC(=O)NC(CC(=O)O)C(=O)O (racemic) [Glycyl-DL-aspartic acid, glycyl-DL-aspartic acid]

Cephalothin disappeared by absorption, Osmotic pressure X 4 (Table 11, promoter 0.1% W/V, Example 10 repeated, four-fold tonic): 21.4 percents | Cephalothin disappeared by absorption, Osmotic pressure X 1 (Table 11, promoter 0.1% W/V, Example 10 repeated, isotonic): 11.9 percents
SMILES: COC(=O)C(N)CCC(=O)O (racemic) [α-methyl DL-glutamate]

Cephalothin disappeared by absorption, Osmotic pressure (%) X 1 (rat, in vivo): 12.3% | Cephalothin disappeared by absorption, Osmotic pressure (%) X 2 (rat, in vivo): 24.2% | Cephalothin disappeared by absorption, Osmotic pressure (%) X 4 (rat, in vivo): 36.9%
SMILES: CCC(C(=O)O)C(=O)O [Ethylmalonic acid, ethylmalonic acid]

Cephalothin disappeared by absorption, Osmotic pressure X 1 (rat, in vivo): 5.8 percents | Cephalothin disappeared by absorption, Osmotic pressure X 2 (rat, in vivo): 10.5 percents | Cephalothin disappeared by absorption, Osmotic pressure X 4 (rat, in vivo): 16.1 percents
SMILES: O=C[C@H](O)[C@@H](O)[C@@H](O)[C@H](O)C(=O)O [Galactronic acid, galacturonic acid]

Cephalothin disappeared by absorption, Osmotic pressure X 1 (rat, in vivo): 5.5 percents | Cephalothin disappeared by absorption, Osmotic pressure X 2 (rat, in vivo): 11.1 percents | Cephalothin disappeared by absorption, Osmotic pressure X 4 (rat, in vivo): 16.4 percents
SMILES: O=C[C@H](O)[C@@H](O)[C@H](O)[C@H](O)C(=O)O [Glucronic acid, glucuronic acid]

Cephalothin disappeared by absorption, Osmotic pressure (%) X 1 (rat, in vivo): 7.1% | Cephalothin disappeared by absorption, Osmotic pressure (%) X 2 (rat, in vivo): 14.2% | Cephalothin disappeared by absorption, Osmotic pressure (%) X 4 (rat, in vivo): 17.0%
SMILES: O=C(O)CNCC(=O)O [Iminodiacetic acid, iminodiacetic acid]

Cephalothin disappeared by absorption, Osmotic pressure (%) X 1 (rat, in vivo): 11.9% | Cephalothin disappeared by absorption, Osmotic pressure (%) X 2 (rat, in vivo): 21.1% | Cephalothin disappeared by absorption, Osmotic pressure (%) X 4 (rat, in vivo): 34.3%
SMILES: CC(=O)CCC(=O)O [Levulinic acid, levulinic acid]

Cephalothin disappeared by absorption, Osmotic pressure X 4 (Table 6, promoter 0.1 W/V %, 0.1 W/V % Cephalothin.Na, four-fold tonic, one hour): 18.8 percents | Cephalothin disappeared by absorption, Osmotic pressure X 1 (Table 6, promoter 0.1 W/V %, 0.1 W/V % Cephalothin.Na, isotonic, one hour): 7.2 percents | Cephalothin disappeared by absorption, Osmotic pressure X 2 (Table 6, promoter 0.1 W/V %, 0.1 W/V % Cephalothin.Na, two-fold tonic, one hour): 12.3 percents
SMILES: O=C(O)CC(O)C(=O)O (stereo not shown) [Malic acid, malic acid]

Cephalothin disappeared by absorption, Osmotic pressure (%) X 1 (rat, in vivo): 5.1% | Cephalothin disappeared by absorption, Osmotic pressure (%) X 2 (rat, in vivo): 7.8% | Cephalothin disappeared by absorption, Osmotic pressure (%) X 4 (rat, in vivo): 15.0%
SMILES: O=C(O)CCCCCC(=O)O [Pimellic acid, pimellic acid]

Cephalothin disappeared by absorption, Osmotic pressure (%) X 1 (rat, in vivo): 8.4% | Cephalothin disappeared by absorption, Osmotic pressure (%) X 2 (rat, in vivo): 12.7% | Cephalothin disappeared by absorption, Osmotic pressure (%) X 4 (rat, in vivo): 19.6%
SMILES: O=C([O-])C(=O)C(=O)[O-].[Na+].[Na+] [Sodium ketomalonate, sodium ketomalonate]

Cephalothin disappeared by absorption, Osmotic pressure (%) X 4 [4]: 18.3% | Cephalothin disappeared by absorption, Osmotic pressure (%) X 1 [3]: 6.6%
SMILES: O=C([O-])C(=O)[O-].[Na+].[Na+] [Sodium oxalate, sodium oxalate]

Cephalothin disappeared by absorption, Osmotic pressure (%) X 1 (rat, in vivo): 7.0% | Cephalothin disappeared by absorption, Osmotic pressure (%) X 2 (rat, in vivo): 11.6% | Cephalothin disappeared by absorption, Osmotic pressure (%) X 4 (rat, in vivo): 23.1%
SMILES: CC(=O)C(=O)[O-].[Na+] [Sodium pyruvate, sodium pyruvate]

Cephalothin disappeared by absorption, Osmotic pressure (%) X 1 (rat, in vivo): 8.2% | Cephalothin disappeared by absorption, Osmotic pressure (%) X 2 (rat, in vivo): 13.1% | Cephalothin disappeared by absorption, Osmotic pressure (%) X 4 (rat, in vivo): 24.0%
SMILES: O=C(O)CCC(=O)O [Succinic acid]

Cephalothin disappeared by absorption, Osmotic pressure (%) X 1 (rat, in vivo): 11.2% | Cephalothin disappeared by absorption, Osmotic pressure (%) X 2 (rat, in vivo): 18.3% | Cephalothin disappeared by absorption, Osmotic pressure (%) X 4 (rat, in vivo): 30.9%
SMILES: CCC(=O)C(=O)O [α-ketobutyric acid]

Cephalothin disappeared by absorption, Osmotic pressure (%) X 4 [6]: 25.6%
SMILES: O=C(O)CCC(=O)C(=O)O [α-ketoglutaric acid]

Cephalothin disappeared by absorption, Osmotic pressure (%) X 1 (rat, in vivo): 9.8% | Cephalothin disappeared by absorption, Osmotic pressure (%) X 2 (rat, in vivo): 14.7% | Cephalothin disappeared by absorption, Osmotic pressure (%) X 4 (rat, in vivo): 23.2%
SMILES: CCCC(=O)C(=O)O [α-ketovaleric acid]

Cephalothin disappeared by absorption, Osmotic pressure X 1 (rat, in vivo): 13.1 percents | Cephalothin disappeared by absorption, Osmotic pressure X 2 (rat, in vivo): 24.6 percents | Cephalothin disappeared by absorption, Osmotic pressure X 4 (rat, in vivo): 31.4 percents
SMILES: N[C@@H](CC(C(=O)O)C(=O)O)C(=O)O [γ-carboxyglutamic acid]

Cephalothin disappeared by absorption, Osmotic pressure X 1 (rat, in vivo): 7.1 percents | Cephalothin disappeared by absorption, Osmotic pressure X 2 (rat, in vivo): 11.8 percents | Cephalothin disappeared by absorption, Osmotic pressure X 4 (rat, in vivo): 17.0 percents
SMILES: NCCCCCC(=O)O [ε-aminocaproic acid]
